In PMC12524408 (International Journal of Molecular Sciences, 2025):
No end group written: not given here.

Tests used:
DSS-induced colitis = details: cited from earlier work; for Therapeutic effect in colitis: 25 nmol/kg subcutaneously, previous studies
Procedure: Nevertheless, the 25 nmol/kg dose was selected for further evaluation (Figure 5). […] The in vivo pharmacological studies were conducted by a contract research organization (CRO), LSI Medience Ltd. (Kumamoto, Japan), and were not in an academic setting. Although the studies were conducted professionally, a blinded evaluation was not implemented, which may have introduced bias. Additionally, histological analysis of the colonic tissue was not performed. […] Future pharmacologi ...

[1] = Stability (degradation) in human serum; type: in vitro ADME; details: pooled human serum, 100 μL in 200 μL (10 mM NaH2PO4 pH 7.1, 100 mM NaCl), 37 °C, 60 min; fluorescence immunoassay; mean, n = 3; read-out: % remaining in human serum after 60 min
Excerpt: Error bars are shorter than the symbol size.

remaining at 1 h [1]	Molecule	Therapeutic effect in colitis (DSS-induced colitis)	Histological analysis of colonic tissue (DSS-induced colitis; previous study)
–	20 kDa PEGylated AM ({PEG 20 kDa}-YRQSMNNFQGLRSFGCRFGTCTVQKLAHQIYQFTDKDKDNVAPRSKISPQGY; ends and bridges not checked; UniProt P35318 95-146, looked up) [20 k PEG-AM]	significant therapeutic effects	histological improvements were observed, but were not statistically significant
–	60 kDa PEGylated AM ({PEG 60 kDa}-YRQSMNNFQGLRSFGCRFGTCTVQKLAHQIYQFTDKDKDNVAPRSKISPQGY; ends and bridges not checked; UniProt P35318 95-146, looked up) [60 k PEG-AM]	significant therapeutic effects	–
9.45%	CC[C@H](C)[C@H](NC(=O)[C@H](CCC(N)=O)NC(=O)[C@H](Cc1c[nH]cn1)NC(=O)[C@H](C)NC(=O)[C@H](CC(C)C)NC(=O)[C@H](CCCCN)NC(=O)[C@H](CCC(N)=O)NC(=O)[C@@H](NC(=O)[C@@H](NC(=O)[C@@H]1CSSC[C@H](NC(=O)CNC(=O)[C@H](Cc2ccccc2)NC(=O)[C@H](CO)NC(=O)[C@H](CCCNC(=N)N)NC(=O)[C@H](CC(C)C)NC(=O)CNC(=O)[C@H](CCC(N)=O)NC(=O)[C@H](Cc2ccccc2)NC(=O)[C@H](CC(N)=O)NC(=O)[C@H](CC(N)=O)NC(=O)[C@H](CCSC)NC(=O)[C@H](CO)NC(=O)[C@H](CCC(N)=O)NC(=O)[C@H](CCCNC(=N)N)NC(=O)[C@@H](N)Cc2ccc(O)cc2)C(=O)N[C@@H](CCCNC(=N)N)C(=O)N[C@@H](Cc2ccccc2)C(=O)NCC(=O)N[C@@H]([C@@H](C)O)C(=O)N1)[C@@H](C)O)C(C)C)C(=O)N[C@@H](Cc1ccc(O)cc1)C(=O)N[C@@H](CCC(N)=O)C(=O)N[C@@H](Cc1ccccc1)C(=O)N[C@H](C(=O)N[C@@H](CC(=O)O)C(=O)N[C@@H](CCCCN)C(=O)N[C@@H](CC(=O)O)C(=O)N[C@@H](CCCCN)C(=O)N[C@@H](CC(=O)O)C(=O)N[C@@H](CC(N)=O)C(=O)N[C@H](C(=O)N[C@@H](C)C(=O)N1CCC[C@H]1C(=O)N[C@@H](CCCNC(=N)N)C(=O)N[C@@H](CO)C(=O)N[C@@H](CCCCN)C(=O)N[C@H](C(=O)N[C@@H](CO)C(=O)N1CCC[C@H]1C(=O)N[C@@H](CCC(N)=O)C(=O)NCC(=O)N[C@@H](Cc1ccc(O)cc1)C(N)=O)[C@@H](C)CC)C(C)C)[C@@H](C)O [AM, Adrenomedullin]	–	–
